Like-named read-outs stand apart in the source and are kept apart here.
Assays:
[1] = Example 1 single dose study: pharmacokinetics; type: in vivo, human; conditions: for Cmax / half-life / AUC(0-inf) / AUC(0-t) / AUC / Tmax: both sexes, human; for Tmax: read-out: mean time to maximum plasma concentration (Tmax)
Protocol: A single-center, randomized, double-blind, dose-rising study to determine the safety, pharmacokinetics, and pharmacodynamics of single doses of 1-(3-chloro-5-{[4-(4-chlorothiophen-2-yl)-5-(4-cyclohexylpiperazin-1-yl)thiazol-2-yl]carbamoyl} pyridin-2-yl)piperadine-4-carboxylic acid (Formula I) in normal healthy volunteers was performed. The starting dose of the drug of Formula I was 1 mg (expressed as free base). Successive dose cohorts received 3, 10, 20, 50, 75 and 100 mg. The drug substance in the form of the monomaleate salt was suspended in Ora-Plus® (purified water, microcrystalline cellulose, sodium carboxymethylcellulose, xanthan gum, citric acid, sodium phosphate, simethicone, potassium sorbate and methylparaben), a commercially available oral suspending vehicle manufactured by Paddock Laboratories, Inc. Minneapolis, Minn. The Ora-Plus® was diluted with purified water, USP in a 1:1 suspension before being used to suspend the drug substance powder in preparation for oral administration. Prior to administration, 30 mL of the Ora-Plus®/water vehicle was added to each bottle, shaken and then consumed by the subject for each of the 3, 10, 50 and 75 mg dose cohorts. This was followed by an additional 30 mL of vehicle that was added to the bottle as a wash solution, shaken and then consumed by the subject. For the 20 mg and 100 mg dose cohorts, 60 mL of the Ora-Plus®/water vehicle was added to two (2) separate bottles containing the appropriate dose of drug (30 mL each bottle), shaken then consumed by the subjects. This was followed by an additional 60 mL of vehicle that was added as 30 ml to each bottle as a wash solution, shaken and then consumed by the subject.
A minimum of 9 subjects (male and female healthy volunteers) were enrolled in each cohort. The active group within each cohort included male and female volunteers. Three subjects per cohort received placebo. Each successive dose cohort was treated no sooner than 10 days after the previous group had received the study drug. […] Each subject received only 1 dose of Formula I. Intra-subject dose escalation and treating previously treated subjects in any cohort expansions were not allowed. All subjects were followed until their platelet count returned to normal levels (defined as ±20% of baseline).
Dose escalation was stopped if the PD limiting dose was reached or at the dose at which a dose limiting toxicity (DLT) was observed. The pharmacodynamic limit (PD limit) is defined as the dose at which there was a 50% increase in platelet count relative to the […] in the 6 actively treated subjects. The pharmacodynamic limiting dose (if reached), was repeated by running an additional cohort of 9 subjects (3 placebo and 6 active) at the dose level of the observed PD limit.
Pharmacokinetic sampling was taken. Pharmacodynamic evaluations of platelet counts and other hematological parameters were performed from study drug administration (Day 1) until 7 days after dosing. Outpatient follow-up for safety evaluation occurred until 14 days post-treatment for all subjects and longer for subjects requiring additional follow-up. For the repeat PD dose cohort or 100 mg dose cohort, the evaluations of platelet counts and other hematological parameters were performed each day from Day 1 through 14 and then every other day up to Day 28. If the PD dose limit was not reached at a dose of 75 mg, platelet count evaluations as outlined for the PD limiting dose were performed on the 100 mg dose cohort.

CYP1A2 = target: T1, CYP1A2 (Homo sapiens, UniProt P05177); test: inhibition of human liver cytochrome P450 CYP1A2; type: in vitro ADME; conditions: human liver cytochrome P450 isoenzyme
T1 sequence (P05177 1-516): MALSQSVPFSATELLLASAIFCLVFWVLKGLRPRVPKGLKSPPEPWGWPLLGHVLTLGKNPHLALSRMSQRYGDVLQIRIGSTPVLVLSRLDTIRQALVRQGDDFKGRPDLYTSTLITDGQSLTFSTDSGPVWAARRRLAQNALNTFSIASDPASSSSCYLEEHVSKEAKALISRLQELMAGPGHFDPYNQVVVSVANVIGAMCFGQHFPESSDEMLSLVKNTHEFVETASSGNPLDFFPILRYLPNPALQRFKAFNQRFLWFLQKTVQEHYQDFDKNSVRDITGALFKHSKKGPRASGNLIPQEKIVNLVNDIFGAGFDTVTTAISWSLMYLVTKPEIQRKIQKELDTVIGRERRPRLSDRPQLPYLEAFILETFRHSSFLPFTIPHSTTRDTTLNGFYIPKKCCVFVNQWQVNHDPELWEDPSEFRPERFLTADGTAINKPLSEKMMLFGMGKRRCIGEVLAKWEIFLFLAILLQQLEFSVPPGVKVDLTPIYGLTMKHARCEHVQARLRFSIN

Cmax ([1]; plasma, oral, 1 mg, single 1 mg daily dose, read-out: mean maximum plasma concentration (Cmax)): ~5.7 ng/mL
Cmax ([1]; plasma, oral, 3 mg, single 3 mg daily dose, read-out: mean maximum plasma concentration (Cmax)): 14 to 17 ng/mL
Cmax ([1]; plasma, oral, 10 mg, single 10 mg daily dose, (±20%), read-out: mean maximum plasma concentration (Cmax)): 53 to 69 ng/mL
Cmax ([1]; plasma, oral, 20 mg, single 20 mg daily dose, read-out: mean maximum plasma concentration (Cmax)): 121 to 168 ng/mL
Cmax ([1]; plasma, oral, 50 mg, single 50 mg daily dose, read-out: mean maximum plasma concentration (Cmax)): ~311 ng/mL
Cmax ([1]; plasma, oral, 75 mg, single 75 mg daily dose, read-out: mean maximum plasma concentration (Cmax)): ~473 ng/mL
Cmax ([1]; plasma, oral, 100 mg, 100 mg daily dose, read-out: mean maximum plasma concentration (Cmax)): ~388 ng/mL
Cmax ([1]; plasma, po, 1 mg, single oral dose 1 mg, healthy volunteers, final mean, read-out: Cmax): 5.67 ng/mL
half-life ([1]; plasma, po, 1 mg, single oral dose 1 mg, healthy volunteers, final mean, read-out: T½ (converted)): 21.5 h
Cmax ([1]; plasma, po, 1 mg, single oral dose 1 mg, healthy volunteers, preliminary mean, read-out: Cmax): 5.15 ng/mL
half-life ([1]; plasma, po, 1 mg, single oral dose 1 mg, healthy volunteers, preliminary mean, read-out: T½ (converted)): 18.9 h
Cmax ([1]; plasma, po, 3 mg, single oral dose 3 mg, healthy volunteers, preliminary mean, read-out: Cmax): 16 ng/mL
half-life ([1]; plasma, po, 3 mg, single oral dose 3 mg, healthy volunteers, preliminary mean, read-out: T½ (converted)): 17.5 h
Cmax ([1]; plasma, po, 10 mg, single oral dose 10 mg, healthy volunteers, preliminary mean, read-out: Cmax): 63.6 ng/mL
half-life ([1]; plasma, po, 10 mg, single oral dose 10 mg, healthy volunteers, preliminary mean, read-out: T½ (converted)): 18 h
Cmax ([1]; plasma, po, 20 mg, single oral dose 20 mg, healthy volunteers, preliminary mean, read-out: Cmax): 146 ng/mL
half-life ([1]; plasma, po, 20 mg, single oral dose 20 mg, healthy volunteers, preliminary mean, read-out: T½ (converted)): 12.9 h
Cmax ([1]; plasma, po, 50 mg, single oral dose 50 mg, healthy volunteers, final mean, read-out: Cmax): 312 ng/mL
half-life ([1]; plasma, po, 50 mg, single oral dose 50 mg, healthy volunteers, final mean, read-out: T½ (converted)): 19 h
Cmax ([1]; plasma, po, 50 mg, single oral dose 50 mg, healthy volunteers, preliminary mean, read-out: Cmax): 294 ng/mL
half-life ([1]; plasma, po, 50 mg, single oral dose 50 mg, healthy volunteers, preliminary mean, read-out: T½ (converted)): 14.8 h
Cmax ([1]; plasma, po, 75 mg, single oral dose 75 mg, healthy volunteers, final mean, read-out: Cmax): 474 ng/mL
half-life ([1]; plasma, po, 75 mg, single oral dose 75 mg, healthy volunteers, final mean, read-out: T½ (converted)): 18.8 h
Cmax ([1]; plasma, po, 75 mg, single oral dose 75 mg, healthy volunteers, preliminary mean, read-out: Cmax): 446 ng/mL
half-life ([1]; plasma, po, 75 mg, single oral dose 75 mg, healthy volunteers, preliminary mean, read-out: T½ (converted)): 15.3 h
Cmax ([1]; plasma, po, 100 mg, single oral dose 100 mg, healthy volunteers, final mean, read-out: Cmax): 388 ng/mL
half-life ([1]; plasma, po, 100 mg, single oral dose 100 mg, healthy volunteers, final mean, read-out: T½ (converted)): 18 h
Cmax ([1]; plasma, po, 100 mg, single oral dose 100 mg, healthy volunteers, preliminary mean, read-out: Cmax): 365 ng/mL
half-life ([1]; plasma, po, 100 mg, single oral dose 100 mg, healthy volunteers, preliminary mean, read-out: T½ (converted)): 15.8 h
AUC(0-inf) ([1]; plasma, single oral dose 1 mg, healthy volunteers, final mean): 183 ng·h/mL
AUC(0-t) ([1]; plasma, single oral dose 1 mg, healthy volunteers, final mean, read-out: AUC0-last): 130 ng·h/mL
AUC ([1]; plasma, single oral dose 1 mg, healthy volunteers, preliminary mean): 161 ng·h/mL
AUC ([1]; plasma, single oral dose 3 mg, healthy volunteers, preliminary mean): 477 ng·h/mL
AUC ([1]; plasma, single oral dose 10 mg, healthy volunteers, preliminary mean): 2110 ng·h/mL
AUC ([1]; plasma, single oral dose 20 mg, healthy volunteers, preliminary mean): 4020 ng·h/mL
AUC(0-inf) ([1]; plasma, single oral dose 50 mg, healthy volunteers, final mean): 8480 ng·h/mL
AUC(0-t) ([1]; plasma, single oral dose 50 mg, healthy volunteers, final mean, read-out: AUC0-last): 6880 ng·h/mL
AUC ([1]; plasma, single oral dose 50 mg, healthy volunteers, preliminary mean): 9180 ng·h/mL
AUC(0-inf) ([1]; plasma, single oral dose 75 mg, healthy volunteers, final mean): 13500 ng·h/mL
AUC(0-t) ([1]; plasma, single oral dose 75 mg, healthy volunteers, final mean, read-out: AUC0-last): 10800 ng·h/mL
AUC ([1]; plasma, single oral dose 75 mg, healthy volunteers, preliminary mean): 12600 ng·h/mL
AUC(0-inf) ([1]; plasma, single oral dose 100 mg, healthy volunteers, final mean): 11100 ng·h/mL
AUC(0-t) ([1]; plasma, single oral dose 100 mg, healthy volunteers, final mean, read-out: AUC0-last): 10900 ng·h/mL
AUC ([1]; plasma, single oral dose 100 mg, healthy volunteers, preliminary mean): 10500 ng·h/mL
half-life ([1]; serum, oral, single dose 1 mg to 100 mg, independent of the dose, read-out: serum elimination half-life (mean t1/2)): 18 to 24 h
Cmax ([1]; serum, po, 3 mg, single oral dose 3 mg, healthy volunteers, final mean, read-out: Cmax): 17.1 ng/mL
half-life ([1]; serum, po, 3 mg, single oral dose 3 mg, healthy volunteers, final mean, read-out: T½ (converted)): 23.6 h
Cmax ([1]; serum, po, 10 mg, single oral dose 10 mg, healthy volunteers, final mean, read-out: Cmax): 69.1 ng/mL
half-life ([1]; serum, po, 10 mg, single oral dose 10 mg, healthy volunteers, final mean, read-out: T½ (converted)): 21.8 h
Cmax ([1]; serum, po, 20 mg, single oral dose 20 mg, healthy volunteers, final mean, read-out: Cmax): 169 ng/mL
half-life ([1]; serum, po, 20 mg, single oral dose 20 mg, healthy volunteers, final mean, read-out: T½ (converted)): 18.9 h
AUC(0-inf) ([1]; serum, single oral dose 3 mg, healthy volunteers, final mean): 534 ng·h/mL
AUC(0-t) ([1]; serum, single oral dose 3 mg, healthy volunteers, final mean, read-out: AUC0-last): 401 ng·h/mL
AUC(0-inf) ([1]; serum, single oral dose 10 mg, healthy volunteers, final mean): 2380 ng·h/mL
AUC(0-t) ([1]; serum, single oral dose 10 mg, healthy volunteers, final mean, read-out: AUC0-last): 1650 ng·h/mL
AUC(0-inf) ([1]; serum, single oral dose 20 mg, healthy volunteers, final mean): 4440 ng·h/mL
AUC(0-t) ([1]; serum, single oral dose 20 mg, healthy volunteers, final mean, read-out: AUC0-last): 3600 ng·h/mL
AUC(0-t) ([1]; plasma, oral, 100 mg daily dose, read-out: mean AUC0-last): ~10900 ng·h/mL
Tmax ([1]; plasma, oral, 100 mg daily dose): ~6.2 h
AUC(0-t) ([1]; plasma, oral, single 1 mg daily dose, read-out: mean AUC0-last): ~130 ng·h/mL
Tmax ([1]; plasma, oral, single 1 mg daily dose): ~6.1 h
AUC(0-t) ([1]; plasma, oral, single 3 mg daily dose, read-out: mean AUC0-last): 235 to 400 ng·h/mL
Tmax ([1]; plasma, oral, single 3 mg daily dose): ~5.5 h
AUC(0-t) ([1]; plasma, oral, single 10 mg daily dose, read-out: mean AUC0-last): 840 to 1640 ng·h/mL
Tmax ([1]; plasma, oral, single 10 mg daily dose): 4.8 to 6 h
AUC(0-t) ([1]; plasma, oral, single 20 mg daily dose, read-out: mean AUC0-last): 1960 to 3600 ng·h/mL
Tmax ([1]; plasma, oral, single 20 mg daily dose): ~5.2 h
AUC(0-t) ([1]; plasma, oral, single 50 mg daily dose, read-out: mean AUC0-last): ~6880 ng·h/mL
Tmax ([1]; plasma, oral, single 50 mg daily dose): ~4.8 h
AUC(0-t) ([1]; plasma, oral, single 75 mg daily dose, read-out: mean AUC0-last): ~10800 ng·h/mL
Tmax ([1]; plasma, oral, single 75 mg daily dose): ~6 h
lag time ([1]; single oral dose, healthy volunteers): 2 to 4 h
inhibition of CYP1A2 (CYP1A2): did not inhibit
Compound: O=C(Nc1nc(-c2cc(Cl)cs2)c(N2CCN(C3CCCCC3)CC2)s1)c1cnc(N2CCC(C(=O)O)CC2)c(Cl)c1 [Formula I, 1-(3-chloro-5-{[4-(4-chlorothiophen-2-yl)-5-(4-cyclohexylpiperazin-1-yl)thiazol-2-yl]carbamoyl}pyridin-2-yl)piperadine-4-carboxylic acid]
dose proportionality of Cmax and AUC ([1]; single doses 1 to 100 mg, slightly lower than expected exposure at 100 mg): increased proportionally up to the 75 mg dose

From patent US20110224226A1, “COMPOSITIONS AND METHODS FOR INCREASING BLOOD PLATELET LEVELS IN HUMANS” (AKARX, Inc., priority 2006, published 2011)
